Results on 6 molecules are retold here after ChEMBL document CHEMBL3046190, “Acid promoted intramolecular formation of 3,5-anhydro-1,4-furano-7-ulose derivatives via the Wittig-cyclization procedure and their antimicrobial properties” (2013).

SMILES strings stand for the structures. Converted amounts (≈) assume the structure as drawn. The source made the active and inactive calls. The rule behind the calls is not given here.

In test [1] the test system is Bacillus subtilis. As to the kind of experiment: Antimicrobial activity against Bacillus subtilis ATCC 6633 assessed as growth inhibition after 24-48 hr by broth microdilution technique. It is filed as functional.
Test [2] has as its system Enterococcus faecalis. As to the kind of experiment: Antimicrobial activity against Enterococcus faecalis ATCC 29212 assessed as growth inhibition at 0.005 to 5 mg/ml after 24-48 hr by broth microdilution technique. It is filed as functional, organism-based. A general note: Dilution methods test growth across graded concentrations, often in twofold steps.
The test system of test [3] is Salmonella typhimurium. As to the kind of experiment: Antimicrobial activity against Salmonella enterica subsp. enterica serovar Typhimurium CCM 5445 assessed as growth inhibition after 24-48 hr by broth microdilution technique. It is filed as functional.
Test [4] relates to Klebsiella pneumoniae. As to the kind of experiment: Antimicrobial activity against Klebsiella pneumoniae CCM 2318 assessed as growth inhibition after 24 to 48 hr by broth microdilution technique. It is filed as functional.
In test [5] the test system is Escherichia coli. Nature of the test: Antimicrobial activity against Escherichia coli ATCC […] assessed as growth inhibition after 24-48 hr by broth microdilution technique. It is filed as functional.
For test [6], the system named is Candida albicans. As to the kind of experiment: Antimicrobial activity against Candida albicans ATCC 10239 assessed as growth inhibition after 24-48 hr by broth microdilution technique. It is filed as functional.
Test [7] concerns Pseudomonas aeruginosa. Nature of the test: Antimicrobial activity against Pseudomonas aeruginosa ATCC 27853 assessed as growth inhibition after 24-48 hr by broth microdilution technique. The test is classed as functional.
The subject of test [8] is Staphylococcus aureus. As to the kind of experiment: Antimicrobial activity against Staphylococcus aureus ATCC 6538-P assessed as growth inhibition after 24-48 hr by broth microdilution technique. The test is classed as functional.

For `COC(C)(CC1O[C@H]2[C@H]3OC(C)(C)O[C@H]3O[C@H]12)OC` (stereo partly drawn), the MIC was found to be 1500 µg/mL (≈ 5.47 mM) in test [1], 750 µg/mL (≈ 2.73 mM) in test [3], 750 µg/mL (≈ 2.73 mM) in test [7] and 3500 µg/mL (≈ 12.8 mM) in test [8]. Moreover, the “growth inhibition (GI)” value in test [2] was “inactive”. Also, the MIC entry in test [4], in test [5] and in test [6] was “inactive” in each case.

As for `COC(C)(CC1O[C@H]2[C@H]3O[C@@H](C(Cl)(Cl)Cl)O[C@H]3O[C@H]12)OC` (stereo partly drawn), the minimum inhibitory concentration (MIC) in test [1] was 2500 µg/mL (≈ 6.88 mM); in test [4] it was 2500 µg/mL (≈ 6.88 mM); in test [5], 500 µg/mL (≈ 1.38 mM); in test [7], 500 µg/mL (≈ 1.38 mM). For the same molecule, in test [2], the “growth inhibition (GI)” value is “inactive”. For the same molecule, the MIC entry in test [3], in test [6] and in test [8] was “inactive” in each case.

As to `COC(C)(CC1O[C@@H]2[C@H]3O[C@@H](C(Cl)(Cl)Cl)O[C@H]3O[C@H]12)OC` (stereo partly drawn), the minimum inhibitory concentration (MIC) in test [1], in test [5] and in test [7] was 500 µg/mL (≈ 1.38 mM) throughout. Moreover, the “growth inhibition (GI)” value in test [2] is “inactive”. For the same molecule, the MIC result in test [3], in test [4], in test [6] and in test [8] was “inactive” throughout.

For `CC(=O)Cc1ccc(C=O)o1` [5-ACETYLMETHYL-FURFURAL], the MIC in test [1] is 500 µg/mL (≈ 3.29 mM); in test [3], 750 µg/mL (≈ 4.93 mM); in test [4] it was 2500 µg/mL (≈ 16.4 mM); in test [5] it was 500 µg/mL (≈ 3.29 mM); in test [6], 2500 µg/mL (≈ 16.4 mM); in test [7] it was 500 µg/mL (≈ 3.29 mM). For the same molecule, the “growth inhibition (GI)” value in test [2] was “inactive”. The MIC result in test [8] was “inactive”.

In the case of `COC(C)(CC1O[C@@H]2[C@H]3OC(C)(C)O[C@H]3O[C@H]12)OC` (stereo partly drawn), the MIC entry in test [1], in test [3], in test [4], in test [5], in test [6] and in test [7] was “inactive” each time. In test [8], the MIC entry is “inactive”. Besides, the “growth inhibition (GI)” value in test [2] was “inactive”.

On to `COC(C)(CC1O[C@H]2[C@H]3O[C@H](C(Cl)(Cl)Cl)O[C@H]3O[C@H]12)OC` (stereo partly drawn), for which the MIC in test [1] was found to be 500 µg/mL (≈ 1.38 mM); in test [4], 2500 µg/mL (≈ 6.88 mM); in test [5], 250 µg/mL (≈ 0.688 mM); in test [7], 500 µg/mL (≈ 1.38 mM). In addition, the “growth inhibition (GI)” value in test [2] was “inactive”. The MIC result in test [3], in test [6] and in test [8] was “inactive” in each case.

One may read the MIC as the least concentration at which growth counts as inhibited.
